# According to patent US9309242B2, “Substituted pyrido[2,3-b]pyrazines as FGFR kinase inhibitors” (priority 2011, dated 2016):
# Tests used:
# FGFR1 (h) = FGFR1 (h) (Homo sapiens, UniProt P11362); assay: FGFR1 (enzymatic assay), TR-FRET; assay type: biochemical; settings: read-out: FGFR 1 pIC50 (converted)
# FGFR3 (h) = FGFR3 (h) (Homo sapiens, UniProt P22607); assay: FGFR3 (enzymatic assay), TR-FRET; assay type: biochemical; settings: read-out: FGFR 3 pIC50 (converted)
# From the text: Time-Resolved Fluorescence Resonance Energy Transfer (TR-FRET) signal (ex340 nm.
# KDR (h) = KDR (h) (Homo sapiens, UniProt P35968); assay: KDR (VEGFR2) (enzymatic assay), TR-FRET; assay type: biochemical; settings: read-out: VEGFR 2 (KDR) pIC50 (converted)
# Chain of KDR (h) (P35968 20-1356): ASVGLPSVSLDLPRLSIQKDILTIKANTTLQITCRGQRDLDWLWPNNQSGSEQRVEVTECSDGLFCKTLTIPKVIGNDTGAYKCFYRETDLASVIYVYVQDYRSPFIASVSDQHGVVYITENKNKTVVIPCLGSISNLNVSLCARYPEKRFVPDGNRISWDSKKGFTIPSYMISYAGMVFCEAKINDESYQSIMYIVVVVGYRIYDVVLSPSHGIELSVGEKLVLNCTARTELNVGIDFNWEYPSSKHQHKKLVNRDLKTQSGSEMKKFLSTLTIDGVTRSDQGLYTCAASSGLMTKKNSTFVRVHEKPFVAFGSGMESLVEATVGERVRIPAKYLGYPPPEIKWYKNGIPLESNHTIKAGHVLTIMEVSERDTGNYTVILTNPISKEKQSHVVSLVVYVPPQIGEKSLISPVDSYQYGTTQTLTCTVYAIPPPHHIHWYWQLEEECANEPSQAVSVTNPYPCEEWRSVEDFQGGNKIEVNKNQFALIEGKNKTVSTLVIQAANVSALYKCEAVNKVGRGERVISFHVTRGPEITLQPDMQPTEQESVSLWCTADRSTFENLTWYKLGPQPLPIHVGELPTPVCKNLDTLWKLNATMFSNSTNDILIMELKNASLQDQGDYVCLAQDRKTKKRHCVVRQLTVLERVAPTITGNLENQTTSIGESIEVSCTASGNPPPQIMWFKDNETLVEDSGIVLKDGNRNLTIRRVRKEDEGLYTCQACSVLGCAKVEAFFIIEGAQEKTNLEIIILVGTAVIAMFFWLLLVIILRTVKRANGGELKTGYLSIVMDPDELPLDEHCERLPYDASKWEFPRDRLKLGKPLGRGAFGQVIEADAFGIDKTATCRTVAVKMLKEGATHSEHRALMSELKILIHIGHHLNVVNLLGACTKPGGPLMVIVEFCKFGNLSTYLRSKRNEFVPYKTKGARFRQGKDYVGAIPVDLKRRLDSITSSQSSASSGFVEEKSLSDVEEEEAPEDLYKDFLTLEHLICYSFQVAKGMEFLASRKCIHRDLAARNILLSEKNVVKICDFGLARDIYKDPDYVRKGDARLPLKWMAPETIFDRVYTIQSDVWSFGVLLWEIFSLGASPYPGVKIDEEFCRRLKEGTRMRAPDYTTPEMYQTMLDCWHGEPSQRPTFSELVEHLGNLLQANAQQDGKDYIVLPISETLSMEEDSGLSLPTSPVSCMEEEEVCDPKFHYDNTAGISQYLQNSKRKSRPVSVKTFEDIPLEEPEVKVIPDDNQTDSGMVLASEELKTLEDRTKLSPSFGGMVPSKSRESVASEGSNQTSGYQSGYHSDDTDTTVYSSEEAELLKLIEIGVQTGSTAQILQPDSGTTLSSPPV
# In short: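 3 μM ATP, 500 nM Btn-Flt3 substrate, 150 ng/ml kinase; HEPES pH 7.5 with MnCl2, DTT, vanadate, Triton; 1% DMSO. 120 min RT. Stop: EDTA + Eu-anti-P-Tyr + SA-XL-665, 60 min RT. Readout TR-FRET ex340/em620, 655 nm, RFU.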
# [1] = molecular target: T1, Ba/F3-FGFR3-transfected cells (Homo sapiens, UniProt P22607); assay: Ba/F3-FGFR3 (minus IL3) cellular proliferation assay, Alamar Blue; assay type: cell-based
# T1 construct: BAF3-FGFR3 (MIN IL3) pIC50; other: minus IL3
# T1 sequence (P22607 whole entry, change not shown): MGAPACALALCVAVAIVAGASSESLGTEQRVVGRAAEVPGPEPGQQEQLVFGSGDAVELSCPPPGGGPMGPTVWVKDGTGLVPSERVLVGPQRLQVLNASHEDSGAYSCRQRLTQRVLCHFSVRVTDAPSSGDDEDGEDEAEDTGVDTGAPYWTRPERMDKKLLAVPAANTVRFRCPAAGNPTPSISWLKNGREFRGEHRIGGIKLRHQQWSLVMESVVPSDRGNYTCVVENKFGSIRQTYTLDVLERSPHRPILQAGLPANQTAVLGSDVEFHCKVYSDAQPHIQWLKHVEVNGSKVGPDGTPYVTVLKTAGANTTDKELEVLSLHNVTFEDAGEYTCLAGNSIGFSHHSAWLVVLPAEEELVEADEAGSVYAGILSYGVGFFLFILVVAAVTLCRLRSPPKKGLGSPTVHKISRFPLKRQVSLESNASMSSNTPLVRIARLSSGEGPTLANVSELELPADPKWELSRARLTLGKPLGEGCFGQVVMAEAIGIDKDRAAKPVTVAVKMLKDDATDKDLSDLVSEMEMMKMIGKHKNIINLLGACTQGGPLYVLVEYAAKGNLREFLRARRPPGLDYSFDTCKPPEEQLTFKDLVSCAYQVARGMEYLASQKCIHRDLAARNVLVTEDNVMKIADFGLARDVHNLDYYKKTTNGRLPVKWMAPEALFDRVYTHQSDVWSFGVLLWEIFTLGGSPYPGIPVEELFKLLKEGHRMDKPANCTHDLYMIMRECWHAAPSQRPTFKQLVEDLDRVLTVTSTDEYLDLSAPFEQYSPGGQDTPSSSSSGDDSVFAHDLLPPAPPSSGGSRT
# In short: (§1)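 Ba/F3 cells transfected with FGFR3 were seeded at 20000 cells/well in phenol red-free RPMI-1640 with 10% FBS over compound in DMSO and kept 24 hours at 37° C, 5% CO2. Alamar Blue (resazurin) was then added for 4 hours and fluorescence read at ex 540/em 590 nm. The counterscreen repeated this with 10 ng/ml murine IL3.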
# [2] = tested on: Ba/F3-FGFR3-transfected cells; assay: Ba/F3-FGFR3 (plus IL3) cellular proliferation assay, counterscreen with 10 ng/ml murine IL3; assay type: cell-based; settings: plus IL3 (10 ng/ml murine IL3, counterscreen); read-out: BAF3-FGFR3 (PLUS IL3) pIC50 (converted)
# In short: as §1
# [3] = molecular target: T2, Ba/F3-KDR-transfected cells (Homo sapiens, UniProt P35968); assay: Ba/F3-KDR (minus IL3) cellular proliferation assay, Alamar Blue; assay type: cell-based
# T2 construct: BAF3-KDR (MIN IL3) pIC50; other: minus IL3
# T2 sequence (P35968 whole entry, change not shown): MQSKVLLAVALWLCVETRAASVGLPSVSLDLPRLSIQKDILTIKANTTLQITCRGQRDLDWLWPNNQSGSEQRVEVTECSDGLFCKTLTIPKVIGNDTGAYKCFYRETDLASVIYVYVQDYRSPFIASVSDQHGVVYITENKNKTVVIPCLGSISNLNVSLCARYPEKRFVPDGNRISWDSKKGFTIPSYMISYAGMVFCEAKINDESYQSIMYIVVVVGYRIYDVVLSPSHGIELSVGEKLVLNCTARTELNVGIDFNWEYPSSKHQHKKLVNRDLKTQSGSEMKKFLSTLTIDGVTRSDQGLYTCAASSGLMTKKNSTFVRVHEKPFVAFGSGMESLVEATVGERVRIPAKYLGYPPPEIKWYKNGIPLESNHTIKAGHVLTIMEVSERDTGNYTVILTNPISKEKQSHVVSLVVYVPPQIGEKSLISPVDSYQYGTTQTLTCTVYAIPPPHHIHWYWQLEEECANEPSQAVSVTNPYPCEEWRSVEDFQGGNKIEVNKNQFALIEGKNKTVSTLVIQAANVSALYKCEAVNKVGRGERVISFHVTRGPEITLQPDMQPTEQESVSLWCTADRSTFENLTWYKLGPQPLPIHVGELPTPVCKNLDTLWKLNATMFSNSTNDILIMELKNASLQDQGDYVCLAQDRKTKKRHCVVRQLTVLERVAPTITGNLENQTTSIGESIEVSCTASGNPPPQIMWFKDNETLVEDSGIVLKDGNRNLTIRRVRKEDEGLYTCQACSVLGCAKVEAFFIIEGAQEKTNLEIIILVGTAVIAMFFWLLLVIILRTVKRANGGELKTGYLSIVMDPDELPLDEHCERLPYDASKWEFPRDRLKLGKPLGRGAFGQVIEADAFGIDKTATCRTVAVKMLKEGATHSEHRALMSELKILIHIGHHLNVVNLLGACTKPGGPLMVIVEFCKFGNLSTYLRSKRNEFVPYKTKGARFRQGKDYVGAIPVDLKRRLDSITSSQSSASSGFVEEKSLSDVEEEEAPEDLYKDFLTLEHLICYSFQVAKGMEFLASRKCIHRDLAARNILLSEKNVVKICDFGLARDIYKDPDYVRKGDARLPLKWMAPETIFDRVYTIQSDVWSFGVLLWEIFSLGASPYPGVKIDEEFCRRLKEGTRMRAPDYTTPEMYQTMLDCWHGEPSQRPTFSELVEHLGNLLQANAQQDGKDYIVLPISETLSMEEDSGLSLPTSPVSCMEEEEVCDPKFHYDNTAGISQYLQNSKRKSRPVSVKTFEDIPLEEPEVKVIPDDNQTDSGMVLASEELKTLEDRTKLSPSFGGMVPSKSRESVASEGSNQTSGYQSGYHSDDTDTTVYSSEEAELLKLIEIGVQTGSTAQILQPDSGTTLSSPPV
# In short: (§2)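 Read-out: resazurin-based Alamar Blue fluorescence (ex. 540, em. 590 nm) after 4 h. Before that, cells were incubated with compound for 24 h at 37° C. The counterscreen ran identically but with IL3 supplemented.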
# [4] = tested on: Ba/F3-KDR-transfected cells; assay: Ba/F3-KDR (plus IL3) cellular proliferation assay, counterscreen with 10 ng/ml murine IL3; assay type: cell-based; settings: plus IL3 (10 ng/ml murine IL3, counterscreen); read-out: BAF3-KDR (PLUS IL3) pIC50 (converted)
# In short: as §2
# [5] = molecular target: Ba/F3-FGFR4-transfected cells (Homo sapiens, UniProt P22455); assay: Ba/F3-FGFR4 cellular proliferation assay, Alamar Blue; assay type: cell-based
# Chain of Ba/F3-FGFR4-transfected cells (P22455 whole entry, change not shown): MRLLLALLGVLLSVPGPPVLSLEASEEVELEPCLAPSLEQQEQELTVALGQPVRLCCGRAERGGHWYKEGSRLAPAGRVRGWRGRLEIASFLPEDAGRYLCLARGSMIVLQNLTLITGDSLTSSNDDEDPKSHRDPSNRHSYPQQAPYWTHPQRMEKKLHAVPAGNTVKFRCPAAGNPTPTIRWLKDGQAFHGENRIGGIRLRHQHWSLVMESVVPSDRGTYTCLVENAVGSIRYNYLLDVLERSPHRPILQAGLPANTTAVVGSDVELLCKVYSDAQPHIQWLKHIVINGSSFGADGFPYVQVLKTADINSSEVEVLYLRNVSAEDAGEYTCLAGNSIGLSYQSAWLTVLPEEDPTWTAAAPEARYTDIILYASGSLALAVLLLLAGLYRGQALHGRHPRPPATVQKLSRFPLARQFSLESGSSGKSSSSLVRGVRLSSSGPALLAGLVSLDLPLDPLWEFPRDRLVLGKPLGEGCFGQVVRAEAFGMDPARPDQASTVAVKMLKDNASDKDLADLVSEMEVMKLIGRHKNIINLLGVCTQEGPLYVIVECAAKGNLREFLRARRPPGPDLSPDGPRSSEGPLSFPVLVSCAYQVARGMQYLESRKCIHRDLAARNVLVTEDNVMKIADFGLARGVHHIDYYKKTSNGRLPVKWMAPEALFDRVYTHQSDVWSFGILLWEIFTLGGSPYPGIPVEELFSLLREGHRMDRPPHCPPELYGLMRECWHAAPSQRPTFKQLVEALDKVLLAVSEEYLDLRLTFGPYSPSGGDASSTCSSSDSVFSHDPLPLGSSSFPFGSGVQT
# In short: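 Fluorescence read-out (ex. 540 nm, em. 590 nm) of resazurin-based Alamar Blue after 4 h, following 24 h compound exposure of Ba/F3-FGFR4-transfected cells (20000/well) at 37° C, 5% CO2.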
# Chain of FGFR3 (h) (P22607 23-806): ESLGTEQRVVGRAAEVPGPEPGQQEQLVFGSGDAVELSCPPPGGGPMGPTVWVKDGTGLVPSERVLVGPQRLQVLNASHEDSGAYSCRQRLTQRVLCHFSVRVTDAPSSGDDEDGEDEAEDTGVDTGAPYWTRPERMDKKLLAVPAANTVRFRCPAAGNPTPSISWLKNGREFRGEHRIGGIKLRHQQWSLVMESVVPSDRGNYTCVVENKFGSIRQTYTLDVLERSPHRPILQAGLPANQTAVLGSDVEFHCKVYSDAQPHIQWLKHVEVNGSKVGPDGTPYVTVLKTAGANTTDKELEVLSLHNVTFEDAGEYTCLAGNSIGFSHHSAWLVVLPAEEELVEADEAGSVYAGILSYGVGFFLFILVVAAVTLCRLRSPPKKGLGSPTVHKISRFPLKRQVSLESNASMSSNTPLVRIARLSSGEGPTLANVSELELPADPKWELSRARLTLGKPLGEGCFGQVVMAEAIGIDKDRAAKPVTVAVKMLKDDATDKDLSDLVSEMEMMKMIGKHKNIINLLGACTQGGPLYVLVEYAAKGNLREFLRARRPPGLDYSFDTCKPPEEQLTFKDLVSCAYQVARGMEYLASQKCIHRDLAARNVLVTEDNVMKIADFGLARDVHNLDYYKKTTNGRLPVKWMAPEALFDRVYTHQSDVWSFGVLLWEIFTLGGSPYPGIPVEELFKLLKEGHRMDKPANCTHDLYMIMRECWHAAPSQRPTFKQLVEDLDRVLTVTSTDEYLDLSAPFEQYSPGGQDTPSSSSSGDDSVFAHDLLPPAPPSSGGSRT
SMILES,IC50 (FGFR1 (h)) [nM],IC50 (FGFR3 (h)) [nM],IC50 (KDR (h)) [nM],BAF3-FGFR3 (MIN IL3) pIC50 [1],IC50 [2] [nM],BAF3-KDR (MIN IL3) pIC50 [3],IC50 [4] [nM],BAF3-FGFR4 pIC50 [5]
COc1cc(OC)c(F)c(N(CCS(C)(=O)=O)c2ccc3ncc(-c4cnn(CCS(C)(=O)=O)c4)nc3n2)c1 [Compound 266],1.45,1.7,34.7,6.35,> 10000,<5,> 10000,5.78
COc1cc(OC)c(F)c(N(CC2CC(O)C(=O)N2)c2ccc3ncc(-c4cnn(C)c4)nc3n2)c1 (centres unmarked) [Compound 269],1.62,2.14,74.1,~7.1,> 10000,5.12,> 10000,6.29
COc1cc(/N=c2\ccc3ncc(-c4cnn(C)c4)nc3n2CC2CC(O)C(=O)N2)c(F)c(OC)c1 (centres unmarked) [Compound 270],0.776,1.1,6.46,7.00,> 10000,5.56,> 10000,6.40
COc1cc(OC)cc(N(CC2CC(O)C(=O)N2)c2ccc3ncc(-c4cnn(C)c4)nc3n2)c1 (centres unmarked) [Compound 271],4.57,2.45,174,6.27,> 10000,<5,> 10000,5.80
COc1cc(/N=c2\ccc3ncc(-c4cnn(C)c4)nc3n2CC2CC(O)C(=O)N2)cc(OC)c1 (centres unmarked) [Compound 272],0.977,1.45,10,6.73,> 10000,5.68,> 10000,5.97
COc1cc(OC)c(C)c(N(Cc2ncc[nH]2)c2ccc3ncc(-c4cnn(C)c4)nc3n2)c1 [Compound 273],1.15,3.16,20.4,~8.60,> 10000,6.44,> 10000,7.60
COc1cc(OC)cc(N(CCS(C)(=O)=O)c2ccc3ncc(-c4cnn(CCS(C)(=O)=O)c4)nc3n2)c1 [Compound 275],5.89,3.39,141,5.80,> 10000,<5,> 10000,5.13
COc1cc(OC)cc(N(CC(C)(C)O)c2ccc3ncc(-c4cnn(C)c4)nc3n2)c1 [Compound 276],14.5,8.32,141,6.41,> 10000,5.02,> 10000,5.82
COc1cc(/N=c2\ccc3ncc(-c4cnn(C)c4)nc3n2CC(C)(C)O)cc(OC)c1 [Compound 277],0.871,1.07,15.1,7.16,> 10000,5.49,> 10000,6.37
COc1cc(OC)c(F)c(N(CC(C)(C)O)c2ccc3ncc(-c4cnn(C)c4)nc3n2)c1F [Compound 278],1.62,2.95,15.8,7.73,> 10000,5.92,> 10000,7.11
COc1cc(OC)cc(N(c2ccc3ncc(-c4cnn(C)c4)nc3n2)C(C)c2ncc[nH]2)c1 (centres unmarked) [Compound 280],0.851,1.86,31.6,~8.63,> 10000,6.03,> 10000,7.97
COc1cc(OC)cc(N(Cc2nnc(NCCO)o2)c2ccc3ncc(-c4cnn(C)c4)nc3n2)c1 [Compound 282],33.1,25.7,661,<5,> 10000,<5,> 10000,<5
COc1cc(OC)c(F)c(N(CC2CCC(=O)N2)c2ccc3ncc(-c4cnn(CC(C)(C)O)c4)nc3n2)c1 (centres unmarked) [Compound 285],2.34,2.75,35.5,6.84,> 10000,5.36,> 10000,6.12
COc1cc(/N=c2\ccc3ncc(-c4cnn(CC(C)(C)O)c4)nc3n2CC2CCC(=O)N2)c(F)c(OC)c1 (centres unmarked) [Compound 286],~1.55,1.35,11,7.66,> 10000,6.23,> 10000,6.69
COc1cc(OC)c(F)c(N(c2ccc3ncc(-c4cnn(C)c4)nc3n2)C(C)c2ncc[nH]2)c1 (centres unmarked) [Compound 287],0.851,2.14,17.4,~8.54,> 10000,6.62,> 10000,8.08
CNCCn1ccnc1CN(c1ccc2ncc(-c3cnn(C)c3)nc2n1)c1cc(OC)cc(OC)c1F [Compound 289],4.37,12.9,97.7,6.92,> 10000,5.28,> 10000,6.07
COc1cc(OC)cc(N(CCNC2COC2)c2ccc3ncc(-c4cnn(C)c4)nc3n2)c1 [Compound 290],3.55,4.47,55,7.06,> 10000,5.81,> 10000,6.32
COc1cc(OC)c(F)c(N(Cc2ncc[nH]2)c2ccc3ncc(N4CCOCC4)nc3n2)c1 [Compound 291],0.871,1.2,89.1,7.73,> 10000,5.68,> 10000,7.08
COc1cc(OC)cc(N(Cc2ncc[nH]2)c2ccc3ncc(N4CCOCC4)nc3n2)c1 [Compound 293],1.62,1.58,234,7.59,> 10000,5.31,> 10000,6.82
COc1cc(OC)c(F)c(N(Cc2ncc[nH]2)c2ccc3ncc(-c4cnn(CCCN)c4)nc3n2)c1 [Compound 295],0.562,1.29,9.33,8.17,> 10000,6.45,> 10000,7.61
COc1cc(OC)c(F)c(N(Cc2noc(C)n2)c2ccc3ncc(-c4cnn(C)c4)nc3n2)c1 [Compound 297],0.794,1.7,16.2,7.69,> 10000,6.08,> 10000,6.99
COc1cc(OC)c(F)c(N(CC2CCC(=O)N2)c2ccc3ncc(-c4cnn(C5CNC5)c4)nc3n2)c1 (centres unmarked) [Compound 299],1.78,3.55,120,5.94,> 10000,<5,> 10000,5.32
